Holding throughout (experiment): Whole-cell binding assay, competition with 125I-GIP1-42
Common to all, as to set-up: acylated tirzepatide to the full-length or modified; Flag; expressed in transfected cells

For assay [1], the target named is T1, GIPR (Homo sapiens, UniProt P48546, E135A).
T1 sequence (P48546 22-466 E135A): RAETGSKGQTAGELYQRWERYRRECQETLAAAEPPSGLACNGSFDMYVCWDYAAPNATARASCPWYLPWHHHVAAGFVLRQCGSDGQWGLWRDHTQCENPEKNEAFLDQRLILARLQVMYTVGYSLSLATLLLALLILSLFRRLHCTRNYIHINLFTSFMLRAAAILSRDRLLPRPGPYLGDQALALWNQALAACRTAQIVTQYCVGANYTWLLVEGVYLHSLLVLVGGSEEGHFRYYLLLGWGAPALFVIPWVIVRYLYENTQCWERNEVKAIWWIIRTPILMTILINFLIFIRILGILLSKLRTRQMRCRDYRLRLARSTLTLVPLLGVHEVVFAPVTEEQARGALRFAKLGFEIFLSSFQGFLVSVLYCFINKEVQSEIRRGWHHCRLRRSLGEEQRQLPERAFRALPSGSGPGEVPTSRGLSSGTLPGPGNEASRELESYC
The conditions noted are these: GIPR E135A, CHO-K1. Put shortly:
(§1)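 Transiently transfected CHO-K1 cells expressing WT or mutant GIPR were washed in F-12 with 0.1% BSA or 0.1% casein and 33 mM HEPES, then incubated 2 h at 37 °C. After ice-cold PBS washes, cells were lysed and bound radioactivity counted (CPM).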

For assay [2], the target named is T2, GIPR (Homo sapiens, UniProt P48546, F127A).
T2 sequence (P48546 22-466 F127A): T1 sequence (P48546 22-466 E135A) with F106A, A114E
The conditions noted are these: GIPR F127A, CHO-K1. The method in brief:
as §1

In assay [3] the target is T3, GIPR (Homo sapiens, UniProt P48546, Q30A).
T3 sequence (P48546 22-466 Q30A): T1 sequence (P48546 22-466 E135A) with Q9A, A114E
The conditions noted are these: GIPR Q30A, CHO-K1. The method in brief: as §1

Setting [4] is: read-out: binding pIC50 (converted).

The structures appear in SMILES notation. Substitutions are numbered along the chain they refer to.

For `CCCCCCCCCCCCCCCC(=O)N[C@@H](CCC(=O)NCCCC[C@H](NC(=O)[C@H](CC(=O)O)NC(=O)[C@H](CO)NC(=O)[C@@H](NC(=O)[C@H](Cc1ccccc1)NC(=O)[C@@H](NC(=O)CNC(=O)[C@H](CCC(N)=O)NC(=O)C(C)(C)NC(=O)[C@@H](N)Cc1c[nH]cn1)[C@@H](C)O)[C@@H](C)O)C(=O)N[C@@H](CO)C(=O)N[C@@H](CCCCN)C(=O)N[C@@H](Cc1ccc(O)cc1)C(=O)N[C@@H](CC(C)C)C(=O)N[C@@H](CC(=O)O)C(=O)N[C@@H](CCC(=O)O)C(=O)N[C@@H](CCCNC(=N)N)C(=O)N[C@@H](C)C(=O)N[C@@H](C)C(=O)N[C@@H](CCC(N)=O)C(=O)N[C@@H](CC(=O)O)C(=O)N[C@@H](Cc1ccccc1)C(=O)N[C@H](C(=O)N[C@@H](CCC(N)=O)C(=O)N[C@@H](Cc1c[nH]c2ccccc12)C(=O)N[C@@H](CC(C)C)C(=O)N[C@@H](CC(C)C)C(=O)N[C@@H](CC(=O)O)C(=O)NCC(=O)NCC(=O)N1CCC[C@H]1C(=O)N[C@@H](CO)C(=O)N[C@@H](CO)C(=O)NCC(=O)N[C@@H](C)C(=O)N1CCC[C@H]1C(=O)N1CCC[C@H]1C(=O)N1CCC[C@H]1C(=O)N[C@@H](CO)C(N)=O)C(C)C)C(=O)O` [Peptide 20], the “binding Span” value in assay [1] amounted to 64.00 ± 2.46 % WT; in assay [2], 85.53 ± 4.36 % WT; in assay [3], 92.75 ± 4.50 % WT. In addition, the IC50 in assay [1] (setting [4]) was 5.62 nM; in assay [2] (setting [4]), 20 nM; in assay [3] (setting [4]) it was 17 nM.

Values taken from publication PMC8881610 (Nature Communications, 2022).
